Measurements published in patent US10413612B2, “Method of treating cancer with a biomaterial and a toll-like receptor agonist” (Dana-Farber Cancer Institute, Inc., priority 2016, dated 2019).

What was measured:
[1] = In vitro release study of payloads from hydrogel; type: physicochemical; conditions: sink conditions, PBS or media
Protocol: To determine the release kinetics of each payload from the hydrogel, a hydrogel loaded with fluorescently tagged anti-PD-1, fluorescently tagged IL-15sa, lenalidomide, celecoxib, fluorescently tagged 2′3′-cGAMP, or R848 was immersed in 3 mL pH 7.4 phosphate buffered saline (PBS). At each time point, 1 mL of media was taken out and the same amount of fresh buffer was added back. The amount of payload that had been released was then measured using a fluorescence plate reader or via HPLC.
Hydrogels were prepared according to the general procedure in Example 1. They contained either one or all of the payloads indicated. Fluorescent dyes were conjugated to the proteins to facilitate the measurement of protein release kinetics. The hydrogels were immersed in 3 mL of buffer (either PBS only, PBS with Tween80 (0.2% v/v), or RPMI with 10% FBS) and incubated at 37° C. with stirring.
At the indicated sampling time points, 1 mL of buffer was recovered for measurement and was replaced by an equivalent volume of fresh buffer. The aliquots were measured using a fluorescence plate reader to determine protein concentration. Aliquots were also assessed by HPLC to determine small molecule concentration.

[2] = In vivo release study (fluorescence IVIS imaging); parameters: species or system non-tumor-bearing mice; conditions: each time point: first 24 hours (2′3′-cGAMP), first week (IL-15sa)
Excerpt: To evaluate the in vivo release profiles of Cy7 carboxylic acid (a model compound for R848), anti-PD-1, IL-15sa, and 2′3′-cGAMP, hydrogels containing the fluorophore or one of the fluorescently labeled payloads were surgically implanted into non-tumor-bearing mice.
The loading and release properties of the hydrogel were examined in additional experiments. […] It was then confirmed that the hydrogel extends the release of the small molecules and biologics in vivo. Cy7 carboxylic acid (Cy7-CA) was used as a model small molecule payload, as its physical properties are very similar to those of resiquimod (R848). Cy7-CA was administered to non-tumor-bearing mice, either in solution or loaded in a scaffold placed by the fourth mammary fat pad. The mice were assessed by fluorescence IVIS imaging (FIG. 37B), and the data were quantified (FIG. 37C). Whereas a loss of ˜60% of the signal was detected within two hours of administration of the fluorophore in solution, this amount of signal decay required 24 hours for the fluorophore loaded in the hydrogel. Over this time course, there was a […] for the latter group, on average.
To confirm that the hydrogel sustains the release of the small molecule and biologics in vivo, fluorescently labeled versions of 2 ? […]

[3] = test system: 4T1-Luc2 syngeneic breast cancer cells; conditions: hydrogel with IL-15sa and anti-PD-1 (devices 1, 14-16)
Protocol: Seven-week-old female Balb/c mice were inoculated orthotopically with 100,000 4T1-Luc2 syngeneic breast cancer cells (into the fourth mammary fat pad). After 10 days, the mice were anesthetized, tumors were surgically resected, and compositions were placed in the resection site. […] The order of surgeries avoided systematic error by dividing up the groups. Standard follow-up care (wound clips, analgesic) was provided.
For the metastatic breast cancer model, 10^5 4T1-Luc2 or 4T1 cells (in 30 μl DPBS) were inoculated orthotopically into the fourth mammary pad of mice to generate a local tumor mass. Cells were injected without any incision to expose the fat pad. Mice were randomly assigned to treatment groups, and surgery was performed 10 days after tumor inoculation. For the metastatic melanoma and lung cancer models, 10^6B16-BL6 or 5×10^5 LLC cells (in 100 μl DPBS) were inoculated subcutaneously in mice to generate a local tumor mass. Mice were randomly assigned to treatment groups, and surgery was performed when tumor volumes reached ˜600 mm^3. While mice were kept under anesthesia at 2% isoflurane, the tumor was resected, and the hydrogel was placed in the site of the resultant cavity at the time of surgery. The wound was closed with medical clips. Control experiments were performed in which therapy was administered in solution at the site of surgery, intraperitoneally, or intravenously. For tumor re-challenge experiments, 10^4 4T1-Luc2 cells were inoculated in the contralateral fourth mammary fat pad. The surgeries were performed independently at least three times, and the surgeon was often blinded.
After surgery, mice were inspected weekly for tumor recurrence and distal metastasis by bioluminescence imaging (BLI). To this end, 10 min after intraperitoneal injection of D-luciferin (150 mg/kg), a substrate of Luc2, the mice were anesthetized with 2% isoflurane and imaged using an IVIS Spectrum In Vivo Imaging System (Perkin Elmer).
A series of compositions described above in Table 2 were evaluated in viva. In each group of evaluations, seven-week-old female Balb/c mice were inoculated orthotopically with 100,000 4T1-Luc2 syngeneic breast cancer cells (into the fourth mammary fat pad). After 10 days, mice were anesthetized, tumors were surgically resected, and the composition was placed in the resection site. Tumor relapse and metastasis were monitored via imaging over the course of 6 weeks.
Female BALB/cJ mice were inoculated orthotopically with 4T1-Luc2 breast cancer cells in their fourth mammary fat pad. Nine days later, the mice were imaged by bioluminescent IVIS imaging to confirm that the size of the tumors was consistent across animals to enable randomization into groups. On day 10 post-tumor inoculation, tumors (˜100 mm^3) were resected, and device 1 was placed in the tumor resection site. Controls included no treatment (sham), empty hydrogel (device 8/hydrogel 4), or delivery of the triple combination in solution (S+I+P)—via intraperitoneal injection, intravenous injection, or local administration.

With 2′3′-cGAMP the “in vitro release kinetics (time scale)” value [1] was “hours for the small molecule”, the “percentage remaining locally, hydrogel relative to free compound” value [2] was “nearly twice” and the “survival benefit as innate immune activator component” value [3] was “conferred greater survival benefit than the Toll-like receptor (TLR) 7/8 agonist R848”.
